Like-named read-outs stand apart in the source and are kept apart here.

This passage reports IC50 results from US20230031406A1, “COMPOUNDS AND COMPOSITIONS FOR TREATING CONDITIONS ASSOCIATED WITH NLRP ACTIVITY” (Novartis AG, priority 2018, published 2023).

This test relates to PMA-differentiated THP-1 cells. The experiment in a line: IL-1β production in PMA-differentiated THP-1 cells stimulated with gramicidin (hTHP-1 assay containing 2% fetal bovine serum; Procedures 1 and 2). It is filed as cell-based, human. The following applies: 2% fetal bovine serum, class symbols. The method in brief:
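PMA 20 ng/ml 16-18 h → trypsinise → 50,000 cells/well, RPMI/2% FBS; cpd 1 h (11-pt, 100–0.0017 μM; DMSO 0.37%); gramicidin 5 μM, 2 h; spin; supernatant IL-1β via HTRF.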

Setting [1] is: Homo sapiens, THP-1, Table B2, read-out: hTHP-1 IC50.
Setting [2] is: Table B1, read-out: Average IC50 of compounds in hTHP-1 assay: hTHP-1 IC50.
The mark [3] stands for this setting: Table B4, read-out: hTHP-1 IC50.

The IC50 is the concentration that inhibits the measured activity by half. On to `CCn1ccc(S(N)(=O)=NC(=O)Nc2c3c(nc4c2CCC42CC2)CCC3)n1` (stereo not shown) [Compound 604, 1-Ethyl-N′-((1′,5′,6′,7′-tetrahydro-2′H-spiro[cyclopropane-1,3′-dicyclopenta[b,e]pyridin]-8′-yl)carbamoyl)-1H-pyrazole-3-sulfonimidamide], for which the IC50 under setting [1] was 200 to 1000 nM.

`CC(C)c1c(-c2ccccc2)nc2c(c1NC(=O)N=S(N)(=O)c1cnc(C(C)(C)O)s1)CCC2` (single isomer, unassigned) [Compound 145a, (R) or (S)-2-(2-hydroxy-propan-2-yl)-N′-((3-isopropyl-2-phenyl-6,7-dihydro-5H-cyclopenta[b]pyridin-4-yl)carbamoyl)thiazole-5-sulfonimidamide]: the IC50 under setting [2] is 200 to 1000 nM. For `CC(C)n1nc(S(N)(=O)=NC(=O)Nc2c3c(nc4c2CCC4(C)C)CCC3)cc1CO` (stereo not shown) [Compound 652, N′-((3,3-dimethyl-1,2,3,5,6,7-hexahydrodicyclopenta[b,e]pyridin-8-yl)carbamoyl)-5-(hydroxymethyl)-1-isopropyl-1H-pyrazole-3-sulfonimidamide], under setting [1], the IC50 fell in the range of 1000 to 5000 nM. As for `Cc1c(C(F)(F)F)nc2c(c1NC(=O)N=S(N)(=O)c1nn(C(C)C)cc1F)CCC2` (single isomer, unassigned) [Example 790, (S) or (R)-4-fluoro-1-isopropyl-N′-((3-methyl-2-(trifluoromethyl)-6,7-dihydro-5H-cyclo-penta [b]pyridin-4-yl)carbamoyl)-1H-pyrazole-3-sulfonimidamide], the IC50 under setting [3] was 5000 to 30000 nM. For `CC1CCc2c1nc1c(c2NC(=O)N=S(N)(=O)c2sc(C(C)(C)O)cc2F)CCC1` (single isomer, unassigned) [Compound 103ba, (R,R) or (R,S)-3-fluoro-5-(2-hydroxypropan-2-yl)-N′-((3-methyl-1,2,3,5,6,7-hexahydrodicyclo-penta[b,e]pyridin-8-yl)carbamoyl)thiophene-2-sulfonimidamide], the IC50 under setting [2] was in the range of 8 to 40 nM. As to `CC(C)(O)c1cc(F)c(S(N)(=O)=NC(=O)Nc2c3c(nc4c2CCC4(C)C)CCC3)s1` (single isomer, unassigned) [Compound 102a, (S) or (R)-N′-((3,3-dimethyl-1,2,3,5,6,7-hexahydro-dicyclopenta[b,e]pyridin-8-yl)carbamoyl)-3-fluoro-5-(2-hydroxy-propan-2-yl)thiophene-2-sulfonimidamide], under setting [2], the IC50 was in the range of 1000 to 5000 nM.

On to `Cc1c(C2CC2)nc2c(c1NC(=O)N=S(N)(=O)c1cnc(C(C)(C)O)s1)CCC2` (single isomer, unassigned) [Compound 124b, (R) or (S)-N′-((2-cyclopropyl-3-methyl-6,7-dihydro-5H-cyclopenta[b]pyridin-4-yl)carbamoyl)-2-(2-hydroxypropan-2-yl)thiazole-5-sulfonimidamide], for which the IC50 under setting [2] fell in the range of 200 to 1000 nM. `Cn1nc(C(C)(C)O)cc1S(N)(=O)=NC(=O)Nc1c2c(nc3c1CCC3)CCC2` (stereo not shown) [Compound 166, N′-((1,2,3,5,6,7-hexahydrodicyclopenta[b,e]pyridin-8-yl)carbamoyl)-3-(2-hydroxypropan-2-yl)-1-methyl-1H-pyrazole-5-sulfonimidamide]: under “Homo sapiens, THP-1, Table B1, read-out: Average IC50 of compounds in hTHP-1 assay: hTHP-1 IC50”, the IC50 fell in the range of 5000 to 30000 nM. Turning to `C[C@@H]1CCc2c1nc1c(c2NC(=O)N=S(N)(=O)c2cc(F)c(C(C)(C)O)s2)CCC1` (single isomer, unassigned) [Compound 616a, (R) or (S)-4-Fluoro-5-(2-hydroxypropan-2-yl)-N′-(((R)-3-methyl-1,2,3,5,6,7-hexahydrodicyclopenta [b,e]pyridin-8-yl)carbamoyl) thiophene-2-sulfonimidamide], where the note is “Table B2, read-out: hTHP-1 IC50”, the IC50 fell in the range of 40 to 200 nM. As to `CCn1cc(F)c(S(N)(=O)=NC(=O)Nc2c3c(nc(C(F)(F)F)c2-c2ccc(F)cc2)CCC3)n1` (single isomer, unassigned) [Example 787, (R) or (S)-1-ethyl-4-fluoro-N′-((3-(4-fluorophenyl)-2-(trifluoromethyl)-6,7-dihydro-5H-cyclopenta[b]pyridin-4-yl)carbamoyl)-1H-pyrazole-3-sulfonimidamide], the IC50 under setting [3] lay within 8 to 40 nM. Turning to `CC(C)(O)c1ncc(S(N)(=O)=NC(=O)Nc2c3c(nc4c2CCC4(C)C)CCC3)s1` (single isomer, unassigned) [Compound 153a, (S) or (R)-N′-((3,3-dimethyl-1,2,3,5,6,7-hexahydro-dicyclopenta[b,e]pyridin-8-yl)carbamoyl)-2-(2-hydroxypropan-2-yl)thiazole-5-sulfonimidamide], the IC50 under setting [2] was in the range of 5000 to 30000 nM.

Take `CC1CCc2c1nc1c(c2NC(=O)N=S(N)(=O)c2ccn(C(C)C)n2)CCC1` (single isomer, unassigned) [Compound 129aa, (R,R) or (R,S)-1-isopropyl-N′-((3-methyl-1,2,3,5,6,7-hexa-hydrodicyclo-penta[b,e]pyridin-8-yl)carbamoyl)-1H-pyrazole-3-sulfonimidamide]: the IC50 under setting [2] fell in the range of 40 to 200 nM. Regarding `C[C@@H]1CCc2c1nc1c(c2NC(=O)N=S(N)(=O)c2cnc([C@@](C)(O)CO)s2)CCC1` (single isomer, unassigned) [Example 730], for the setting “Homo sapiens, THP-1, Table B4, read-out: hTHP-1 IC50”, the IC50 was in the range of 200 to 1000 nM.

With `CC1CCc2c1nc1c(c2NC(=O)N=S(N)(=O)c2sc(C(C)(C)O)cc2F)CCC1` (single isomer, unassigned) [Compound 103aa, (S,R) or (S,S)-3-fluoro-5-(2-hydroxypropan-2-yl)-N′-((3-methyl-1,2,3,5,6,7-hexahydrodicyclo-penta[b,e]pyridin-8-yl)carbamoyl)thiophene-2-sulfonimidamide], the IC50 under setting [2] was 1000 to 5000 nM. For `CCc1nc2c(c(NC(=O)N=S(N)(=O)c3ccn(C(F)F)n3)c1C1CC1)CCC2` (stereo not shown) [Compound 629, N′-((3-cyclopropyl-2-ethyl-6,7-dihydro-5H-cyclopenta[b]pyridin-4-yl)carbamoyl)-1-(difluoromethyl)-1H-pyrazole-3-sulfonimidamide], the half-maximal inhibitory concentration (IC50) under setting [1] was 1000 to 5000 nM. For the molecule `CC(C)(O)c1cnc(S(N)(=O)=NC(=O)Nc2c3c(nc4c2CCC4)CCC3)s1` (single isomer, unassigned) [Compound 167b, (R) or (S)-N′-((1,2,3,5,6,7-hexahydrodicyclo-penta[b,e]pyridin-8-yl)carbamoyl)-5-(2-hydroxypropan-2-yl)thiazole-2-sulfonimidamide], under setting [2], the IC50 was in the range of 200 to 1000 nM. Regarding `CC(C)(O)c1ncc(S(N)(=O)=NC(=O)Nc2c3c(nc4c2CC4)CCC3)s1` (stereo not shown) [Compound 672, 2-(2-Hydroxypropan-2-yl)-N′-((2,4,5,6-tetrahydro-1H-cyclobuta[b]cyclopenta[e]pyridin-7-yl)carbamoyl)thiazole-5-sulfonimidamide], the IC50 under setting [1] is 5000 to 30000 nM.

For the molecule `Cc1c(C2CCC2)nc2c(c1NC(=O)N=S(N)(=O)c1cc(C(C)(C)O)cs1)CCC2` (stereo not shown) [Compound 658, N′-((2-cyclobutyl-3-methyl-6,7-dihydro-5H-cyclopenta[b]pyridin-4-yl)carbamoyl)-4-(2-hydroxypropan-2-yl)thiophene-2-sulfonimidamide], the IC50 under setting [1] is 5000 to 30000 nM. Still for that read-out and setting: then `Cc1c(C(F)F)nc2c(c1NC(=O)N=S(N)(=O)c1cnc(C(C)(C)O)s1)CCC2` (stereo not shown) [Compound 647, N′-((2-(difluoromethyl)-3-methyl-6,7-dihydro-5H-cyclopenta[b]pyridin-4-yl)carbamoyl)-2-(2-hydroxypropan-2-yl)thiazole-5-sulfonimidamide], with 1000 to 5000 nM.
